Experimental data from patent publication US9598447B2, “Phosphorus-substituted quinoxaline-type piperidine compounds and uses thereof” (Purdue Pharma L.P., priority 2010, dated 2017).
Read-outs that look alike come from different tables or passages of the source.

Biological target: delta opioid receptor (Homo sapiens (Human), UniProt P41143)
Assay: In vitro delta-opioid receptor binding assay ([3H]-Naltrindole displacement)
[1] = recombinant receptor expressed in CHO-K1 cells, read-out: Ki [Average ± Std Deviation] Opioid Receptor Delta

Chain of delta opioid receptor (P41143 whole entry): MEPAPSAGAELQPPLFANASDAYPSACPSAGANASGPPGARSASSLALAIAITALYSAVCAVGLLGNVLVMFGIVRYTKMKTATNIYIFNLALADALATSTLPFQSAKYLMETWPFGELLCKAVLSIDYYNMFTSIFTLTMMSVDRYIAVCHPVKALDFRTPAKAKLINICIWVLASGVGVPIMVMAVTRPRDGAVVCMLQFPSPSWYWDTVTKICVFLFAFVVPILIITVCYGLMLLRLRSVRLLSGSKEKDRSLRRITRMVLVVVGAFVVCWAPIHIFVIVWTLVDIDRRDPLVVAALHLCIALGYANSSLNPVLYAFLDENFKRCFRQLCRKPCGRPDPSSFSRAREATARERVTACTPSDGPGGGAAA

O=C(NP(=O)(O)O)c1nc2ccccc2n([C@H]2C[C@H]3CCC[C@@H](C2)N3C2CCCCCCC2)c1=O [KK, (4-((1R,3R,5S)-9-cyclooctyl-9-azabicyclo[3.3.1]nonan-3-yl)-3-oxo-3,4-dihydroquinoxaline-2-carbonyl)phosphoramidic acid]
Ki: > 20 µM

O=c1c(P(=O)(O)O)nc2ccccc2n1[C@H]1C[C@H]2CCC[C@@H](C1)N2C1CCCCCCC1 [DD, (4-((1R,3R,5S)-9-cyclooctyl-9-azabicyclo[3.3.1]nonan-3-yl)-3-oxo-3,4-dihydroquinoxalin-2-yl)phosphonic acid]
Ki [1]: > 20 µM

O=c1c(P(=O)(O)O)nc2ccccc2n1[C@H]1C[C@H]2CC[C@@H](C1)N2C12CC3CC(CC1C3)C2 [BB, (4-((1R,3R,5S)-8-((2R,3as,5S,6aS)-octahydro-2,5-methanopentalen-3a-yl)-8-azabicyclo[3.2.1]octan-3-yl)-3-oxo-3,4-dihydroquinoxalin-2-yl)phosphonic acid]
Ki [1]: > 20 µM
